Legend:
[1] = Hepatic and renal functions (GPT, creatinine) in rats; assay type: in vivo, Sprague-Dawley rats; conditions: rat
Method: Glutamic-pyruvic transaminase (GPT) and […] were measured to check the influence of different modalities on hepatic function and renal function by a standard colorimetric method, using a Synchron LX20 spectrophotometer (Beckman Coulter) and manufacturer-supplied reagents.

Huh-7 cells = assay: Morphological observation (Liu's stain); assay type: cell-based, human; conditions: regorafenib 0-20 μM with RT
Method: Huh-7 cells were treated with regorafenib at concentrations of 0, 5, 10 and 20 μmol/L (μM) in the concurrent and sequential groups with different RT doses. Then, the cells were centrifuged by using Cytospin (Shandon Inc., Pittsburgh, PA). Liu’s A solution and Liu’s B solution were used on glass slides for 45 and 90 s, respectively. Then, a light microscope (Olympus, Tokyo, Japan) was used to observe the Huh-7 cells.

HA22T cells = assay: Colony formation assay; assay type: cell-based, human
Method: HA22T cells kindly provided from professor Hu (Taipei Veterans General Hospital, Taiwan) were treated with trypsin to detach, counted and plated (400 per plate) into dishes measuring 60 mm, […] and allowed to grow for 10 days. Cells were stained, and colonies containing ≥ 50 cells were counted.

With `CNC(=O)c1cc(Oc2ccc(NC(=O)Nc3ccc(Cl)c(C(F)(F)F)c3)c(F)c2)ccn1` [regorafenib, Regorafenib] the “Creatinine at 240 min” value ([1]; concurrent RT2 Gy × 1 f'x) was 0.25 ± 0.06 mg/dL, the “Glutamate pyruvate transaminase at 240 min” value ([1]; concurrent RT2 Gy × 1 f'x) was 31.8 ± 5.3 UI and the “Creatinine at 240 min” value ([1]; concurrent RT9 Gy × 1 f'x) was 0.21 ± 0.02 mg/dL. For the same molecule, the “Glutamate pyruvate transaminase at 240 min” value ([1]; concurrent RT9 Gy × 1 f'x) was 33.5 ± 8.8 UI, the “Glutamate pyruvate transaminase and creatinine, regorafenib with vs without RT” value ([1]; different regimens and doses) was “no significant differences” and the “Creatinine at 240 min” value ([1]; regorafenib-only) was 0.23 ± 0.04 mg/dL. For the same molecule, the “Glutamate pyruvate transaminase at 240 min” value ([1]; regorafenib-only) was 36.3 ± 15.0 UI, the “Creatinine at 240 min” value ([1]; sequential RT2 Gy × 1 f'x) was 0.22 ± 0.04 mg/dL and the “Glutamate pyruvate transaminase at 240 min” value ([1]; sequential RT2 Gy × 1 f'x) was 30.5 ± 6.0 UI. For the same molecule, the “Creatinine at 240 min” value ([1]; sequential RT9 Gy × 1 f'x) was 0.25 ± 0.04 mg/dL, the “Glutamate pyruvate transaminase at 240 min” value ([1]; sequential RT9 Gy × 1 f'x) was 33.7 ± 5.2 UI and the “Morphological changes (in words)” value (Huh-7 cells) was “Cell shrinkage and pyknosis occurred in a dose-dependent manner”. The “Colony formation, regorafenib with RT vs regorafenib alone (in words)” value (HA22T cells; regorafenib 1, 10 and 20 μM, concurrent or sequential with RT) was “synergic effects to inhibit the colony formation” and the “Colony formation of HA22T (in words)” value (HA22T cells; regorafenib 1 to 20 μM and RT (2 and 9 Gy)) was “colony formation of HA22T were decreased”.
